# According to patent US20100144854A1 (priority 2007, published 2010):
# Tests used:
# Format in all cases: in vivo, human
# [1] = test system: Malignant glioblastoma of the left brain; test: Example 4: patient with recurrent brain glioblastoma treated with rhodamine 6G intravenously
# Procedure: Patient G. Diagnosis: Malignant glioblastoma of the left brain. Recurrence of cancer. Two years previously a tumor had been removed in connection with a brain glioblastoma. The patient complained of headaches, nausea and vomiting. […] Patient's condition moderately severe; pale skin. […] The procedure took 40 minutes. Subsequent procedures were carried out in exactly the same sequence twice a week. The course of treatment lasted 3 months. During the treatment the tumor reduced in size to 0.3×0.4 cm. After two infusions of the preparation the symptoms of nausea and pain had decreased. The preparation was administered over 6 months as a single dose once every 2 weeks.
# renal cell carcinoma = test: Example 2: patient with renal cell carcinoma and lung formations treated with rhodamine 6G; details: Patient L, 43
# Procedure: Three years previously the left kidney was removed and prophylactic chemotherapy was carried out to treat renal cell carcinoma. […] Severe dyspnea, diagnosis adynamia. Treatment was prescribed, including the use of a medicinal preparation having an anti-tumor action. […] After 4 weeks the dyspnea and pain had decreased. Blood analyses against the treatment background normalised over 3 months. A repeat course of treatment with the preparation was then prescribed, which was administered rectally in the form of a 1% suppository and also by inhalation for 6 months. Over the course of the treatment the tumor in the right kidney and the metastases in the lungs disappeared.
# [2] = test system: adenocarcinoma of the large intestine; test: Example 6: patient with large intestine adenocarcinoma and liver metastases treated with rhodamine 6G; set-up: Nuclear segments / Lymphocytes (line r11) / Erythrocytes / Hemoglobin / Thrombocytes / Leukocytes / Amylase / Chlorine / Serum iron / Cholesterol / Total bilirubin / Bilirubin (line r8, above 'direct'): unit not given here; details: for Erythrocytes / Hemoglobin / Leukocytes / Thrombocytes / Eosinophils / Cholesterol / Monocytes / Total bilirubin / Potassium / ALT / AST / Bilirubin (line r8, above 'direct') / Serum iron / Lymphocytes (line r11) / Nuclear segments / Total protein / Creatinine / Amylase / Chlorine / Indirect bilirubin fraction / direct (line r9) / indirect (line r11) / Basophils / Nuclear rods: Example 6, Patient N; for Eosinophils: normal 0-5; for Cholesterol: normal 1.66-8.3; for Monocytes: normal 2-9%; for Total bilirubin: normal 2.90-6.54; for Potassium: normal 3.5-6.0; for ALT / AST: normal 5-40; for Bilirubin (line r8, above 'direct'): normal 8.5-20.5; for Serum iron: normal 8.8-27.0; for Lymphocytes (line r11): normal 18-; for Nuclear segments: normal 45-70; for Total protein: normal 65.0-80; for Creatinine: normal 85.0; for Amylase: normal 95-110.0; for Chlorine: normal 135.0-; for Indirect bilirubin fraction / direct (line r9): normal to 25%; for indirect (line r11): normal to 100; for Basophils: normal 0-1%; for Nuclear rods: normal 1-6%
# Procedure: Patient N. Diagnosis: adenocarcinoma of the large intestine. Metastases in the liver. Ascites. Three years previously a resection of the large intestine was performed with insertion of an anastomosis end to end. A full course of polychemo-therapy was given. Two years after the treatment the patient complained of pain in the bottom of the abdomen and tenesmus. The patient presented complaining of acute weakness, constant pain in the abdomen, coughing, dyspnea, ascites, retention of stools. Patient's condition serious, loss of appetite, pale cyanosed skin, abdomen with signs of ascites. […] A lump of irregular shape 2×4 cm in size with irregular edges was detected by computerized tomography in the right renal lobe. A large lump 4×5.4 cm in size and free liquid in the peritoneal cavity were also detected. […] The infusions were administered weekly over the course of 3 months. […] The enemas were administered three times a week over the course of 2 months. […] In the third week of treatment the dyspnea was less severe. In the course of treatment the tumor in the region of the anastomosis decreased in size to 0.2×0.3 cm. After 3 months the treatment was discontinued for 1 month, and was then resumed for a further 2 months.
# [3] = Patient N, over the course of the treatment (3 months, 1 month pause, 2 months)
substance,measurement,setting,value
"9-(2-ethoxycarbonyl)phenyl)-3,6-bis(ethylamino)2,7-dimethylxanthyl chloride [rhodamine 6G]",tumor on CT scan,[1]; after 9 months' treatment,no tumor could be detected
same,symptoms of nausea and pain,[1]; after two infusions,decreased
same,dyspnea and pain,"renal cell carcinoma; after 4 weeks, 12 drops 1% solution oral three times a day and microenema",decreased
same,body weight,renal cell carcinoma; after treatment,regained weight
same,blood analyses against the treatment background,renal cell carcinoma; over 3 months,normalised
same,tumor in the kidney and metastases in the lungs,"renal cell carcinoma; over the course of treatment, before: mass 3.5×5.4×3.7 cm, four lung formations 2.0-2.3 cm",disappeared
same,Erythrocytes,[2]; 09 Dec. 2004,4.44
same,Hemoglobin,[2]; 09 Dec. 2004,115
same,Leukocytes,[2]; 09 Dec. 2004,5.2
same,Thrombocytes,[2]; 09 Dec. 2004,326
same,Eosinophils,[2]; 09 Dec. 2004,2
same,Cholesterol,[2]; 09 Dec. 2004,5.75
same,Monocytes,[2]; 09 Dec. 2004,10%
same,Total bilirubin,[2]; 09 Dec. 2004,8.4
same,Potassium,[2]; 09 Dec. 2004,2.28
same,ALT,[2]; 09 Dec. 2004,69.2 el
same,AST,[2]; 09 Dec. 2004,45.7 el
same,"Bilirubin (line r8, above 'direct')",[2]; 09 Dec. 2004,3.3
same,Serum iron,[2]; 09 Dec. 2004,54.8
same,Lymphocytes (line r11),[2]; 09 Dec. 2004,58
same,Nuclear segments,[2]; 09 Dec. 2004,6
same,Total protein,[2]; 09 Dec. 2004,65 g/L
same,Creatinine,[2]; 09 Dec. 2004,74 µM
same,Amylase,[2]; 09 Dec. 2004,102.8
same,Chlorine,[2]; 09 Dec. 2004,114.31
same,Indirect bilirubin fraction,[2]; 09 Dec. 2004,84%
same,direct (line r9),[2]; 09 Dec. 2004,5.1%
same,indirect (line r11),[2]; 09 Dec. 2004,89 el
same,Erythrocytes,[2]; 09 Jan. 2005,4.87
same,Hemoglobin,[2]; 09 Jan. 2005,128
same,Leukocytes,[2]; 09 Jan. 2005,5.3
same,Thrombocytes,[2]; 09 Jan. 2005,440
same,Basophils,[2]; 09 Jan. 2005,1%
same,Eosinophils,[2]; 09 Jan. 2005,1
same,Nuclear rods,[2]; 09 Jan. 2005,2%
same,Cholesterol,[2]; 09 Jan. 2005,7.03
same,Monocytes,[2]; 09 Jan. 2005,12%
same,Total bilirubin,[2]; 09 Jan. 2005,8.0
same,Potassium,[2]; 09 Jan. 2005,2.15
same,ALT,[2]; 09 Jan. 2005,79 el
same,AST,[2]; 09 Jan. 2005,29.5 el
same,"Bilirubin (line r8, above 'direct')",[2]; 09 Jan. 2005,2.0
same,Serum iron,[2]; 09 Jan. 2005,42.9
same,Lymphocytes (line r11),[2]; 09 Jan. 2005,69
same,Nuclear segments,[2]; 09 Jan. 2005,5
same,Total protein,[2]; 09 Jan. 2005,82.53 g/L
same,Creatinine,[2]; 09 Jan. 2005,69 µM
same,Amylase,[2]; 09 Jan. 2005,110.0
same,Chlorine,[2]; 09 Jan. 2005,134.2
same,Indirect bilirubin fraction,[2]; 09 Jan. 2005,90%
same,direct (line r9),[2]; 09 Jan. 2005,6.0%
same,indirect (line r11),[2]; 09 Jan. 2005,78.0 el
same,Erythrocytes,[2]; 9 Oct. 2004,3.20
same,Hemoglobin,[2]; 9 Oct. 2004,74
same,Leukocytes,[2]; 9 Oct. 2004,9.2
same,Thrombocytes,[2]; 9 Oct. 2004,120
same,Basophils,[2]; 9 Oct. 2004,1%
same,Eosinophils,[2]; 9 Oct. 2004,1
same,Nuclear rods,[2]; 9 Oct. 2004,0%
same,Cholesterol,[2]; 09 Oct. 2004,6.21
same,Monocytes,[2]; 9 Oct. 2004,36%
same,Total bilirubin,[2]; 09 Oct. 2004,11.0
same,Potassium,[2]; 09 Oct. 2004,2.72
same,ALT,[2]; 09 Oct. 2004,465.8 el
same,AST,[2]; 09 Oct. 2004,265.7 el
same,"Bilirubin (line r8, above 'direct')",[2]; 09 Oct. 2004,3.0
same,Serum iron,[2]; 09 Oct. 2004,190.4
same,Lymphocytes (line r11),[2]; 9 Oct. 2004,35
same,Nuclear segments,[2]; 9 Oct. 2004,2
same,Total protein,[2]; 09 Oct. 2004,51.23 g/L
same,Creatinine,[2]; 09 Oct. 2004,118 µM
same,Amylase,[2]; 09 Oct. 2004,114.0
same,Chlorine,[2]; 09 Oct. 2004,114.20
same,Indirect bilirubin fraction,[2]; 09 Oct. 2004,82%
same,direct (line r9),[2]; 09 Oct. 2004,8.0%
same,indirect (line r11),[2]; 09 Oct. 2004,107.2 el
same,Cholesterol,[2]; 24. Nov. 2004,5.62
same,Total bilirubin,[2]; 24. Nov. 2004,24.2
same,Potassium,[2]; 24. Nov. 2004,2.32
same,ALT,[2]; 24. Nov. 2004,326 el
same,AST,[2]; 24. Nov. 2004,125.8 el
same,"Bilirubin (line r8, above 'direct')",[2]; 24. Nov. 2004,22.3
same,Serum iron,[2]; 24. Nov. 2004,104.7
same,Total protein,[2]; 24. Nov. 2004,62.26 g/L
same,Creatinine,[2]; 24. Nov. 2004,89 µM
same,Amylase,[2]; 24. Nov. 2004,140
same,Chlorine,[2]; 24. Nov. 2004,115.3
same,Indirect bilirubin fraction,[2]; 24. Nov. 2004,96%
same,direct (line r9),[2]; 24. Nov. 2004,11.9%
same,indirect (line r11),[2]; 24. Nov. 2004,102 el
same,Erythrocytes,[2]; 24 Nov. 2004,3.84
same,Hemoglobin,[2]; 24 Nov. 2004,90
same,Leukocytes,[2]; 24 Nov. 2004,12.0
same,Thrombocytes,[2]; 24 Nov. 2004,210
same,Eosinophils,[2]; 24 Nov. 2004,2
same,Nuclear rods,[2]; 24 Nov. 2004,1%
same,Monocytes,[2]; 24 Nov. 2004,12%
same,Lymphocytes (line r11),[2]; 24 Nov. 2004,49
same,Nuclear segments,[2]; 24 Nov. 2004,6
same,feeling of pain,"[2]; Patient N, 55, ten days after start, i.v. infusions, enemas, oral solution",completely disappeared
same,body weight,"[2]; Patient N, after treatment",Weight regained
same,blood indices,"[2]; Patient N, during treatment",marked step-wise improvement
same,symptoms complained of,"[2]; Patient N, in 2 years",no symptoms
same,metastases in the liver,[2]; [3],no metastases were detected
same,tumor in the region of the anastomosis,[2]; [3],no tumor was detected
same,dyspnea,"[2]; Patient N, third week of treatment",less severe
